Data reported in the supplement of paper PMC10307832.

Tests used:
Assay in all cases: relative viability (nuclei count vs DMSO), 5 days (fraction); higher = more cells survive
XMD13-2 + Decitabine = compound: C1CC1C(=O)NC2=NNC3=C2C=CC(=C3)C4=CC(=CC=C4)C(=O)NC5CC5 [XMD13-2] + Nc1ncn([C@H]2C[C@H](O)[C@@H](CO)O2)c(=O)n1 [Decitabine] (partner 2 µM)
In short: (§1)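 Nuclei were stained with Hoechst during a one-step fixation (final 0.05% Triton X-100, 1% formaldehyde, 1 ug/ml Hoechst) carried out 5 days after dosing, then counted on 4× images. The cells, lung cancer lines in 1536-well plates, had been dosed by pin tool the day after seeding with one drug alone or a fixed anchor-drug dose plus five library-drug doses (not always all listed) in √10 steps. Relative viability is the nuclei count in treated wells divided by that in vehicle wells, and each value is the median of duplicate plates.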

ALW-II-49-7 + Navitoclax = compound: Cc1ccc(C(=O)Nc2cccc(C(F)(F)F)c2)cc1Nc1cncc(C(N)=O)c1 [ALW-II-49-7] + CC1(C)CCC(c2ccc(Cl)cc2)=C(CN2CCN(c3ccc(C(=O)NS(=O)(=O)c4ccc(N[C@H](CCN5CCOCC5)CSc5ccccc5)c(S(=O)(=O)C(F)(F)F)c4)cc3)CC2)C1 [Navitoclax] (partner 0.5 µM)
In short: as §1

ALW-II-49-7 + Foretinib = compound: Cc1ccc(C(=O)Nc2cccc(C(F)(F)F)c2)cc1Nc1cncc(C(N)=O)c1 [ALW-II-49-7] + COc1cc2c(Oc3ccc(NC(=O)C4(C(=O)Nc5ccc(F)cc5)CC4)cc3F)ccnc2cc1OCCCN1CCOCC1 [Foretinib] (partner 0.25 µM)
In short: as §1

Dasatinib + Foretinib = compound: Cc1nc(Nc2ncc(C(=O)Nc3c(C)cccc3Cl)s2)cc(N2CCN(CCO)CC2)n1 [Dasatinib] + COc1cc2c(Oc3ccc(NC(=O)C4(C(=O)Nc5ccc(F)cc5)CC4)cc3F)ccnc2cc1OCCCN1CCOCC1 [Foretinib] (partner 0.25 µM)
In short: as §1

Cell Line	relative viability (XMD13-2 + Decitabine; first compound 0.05 µM)	relative viability (XMD13-2 + Decitabine; first compound 0.1581 µM)	relative viability (XMD13-2 + Decitabine; first compound 0.5 µM)	relative viability (XMD13-2 + Decitabine; first compound 1.581 µM)	relative viability (XMD13-2 + Decitabine; first compound 5 µM)	relative viability (ALW-II-49-7 + Navitoclax; first compound 0.08 µM)	relative viability (ALW-II-49-7 + Navitoclax; first compound 0.253 µM)	relative viability (ALW-II-49-7 + Navitoclax; first compound 0.8 µM)	relative viability (ALW-II-49-7 + Navitoclax; first compound 2.53 µM)	relative viability (ALW-II-49-7 + Navitoclax; first compound 8 µM)	relative viability (ALW-II-49-7 + Foretinib; first compound 0.08 µM)	relative viability (ALW-II-49-7 + Foretinib; first compound 0.253 µM)	relative viability (ALW-II-49-7 + Foretinib; first compound 0.8 µM)	relative viability (ALW-II-49-7 + Foretinib; first compound 2.53 µM)	relative viability (ALW-II-49-7 + Foretinib; first compound 8 µM)	relative viability (Dasatinib + Foretinib; first compound 0.005 µM)	relative viability (Dasatinib + Foretinib; first compound 0.01581 µM)	relative viability (Dasatinib + Foretinib; first compound 0.05 µM)	relative viability (Dasatinib + Foretinib; first compound 0.1581 µM)	relative viability (Dasatinib + Foretinib; first compound 0.5 µM)
SK-LU-1	0.569	0.601	0.746	0.616	0.628	1.09	0.769	1.2	0.585	0.474	0.894	0.895	0.923	0.797	0.592	0.543	0.343	0.295	0.171	0.179
HCC-78	0.691	0.737	0.664	0.613	0.61	1.01	0.682	0.787	0.744	0.641	0.524	0.487		0.528	0.586	0.549	0.461	0.384	0.302	0.249
LCLC-97TM1	0.241	0.23	0.202	0.168	0.195	0.628	0.334	0.57	0.131	0.431	0.869	0.894	1.06	0.939	0.933	0.968	0.955	1.04	0.78	0.461
NCI-H838	0.386	0.414	0.477	0.436	0.387	1.12	1.42	1.17	1.14	1.17	0.988	1.12	1.04	1.12	1.24	0.679	0.654	0.552	0.313	0.236
NCI-H520	0.531	0.506	0.534	0.549	0.442	1.04	1.23		1.03	1.01	0.904	0.697	0.971	0.777	0.555	0.631	0.427	0.36	0.175	0.175
NCI-H2347	0.599	0.565	0.652	0.566	0.65	0.899	0.807	0.721	0.44	0.685	1.1	1.04	0.906	0.227	0.844	0.625	0.504	0.436	0.378	0.495
NCI-H441	0.23	0.248	0.237	0.231	0.242	0.591	0.61	0.673	0.572	0.745	1.02	1.01	1.14	1.22	0.854	1.06	0.988	1.02	0.701	0.382
NCI-H1944	0.438	0.436	0.493	0.474	0.482	1.06	1.14	0.991	1.11	1.07	0.997	0.801	0.964	0.846	0.954	0.849	0.684	0.701	0.291	0.21
NCI-H2405	0.796	0.731	0.73		0.673	0.761	0.974	0.779	0.241	0.735	1.03	1.06	0.998	0.847	0.895	0.983	0.714	0.564	0.304	0.233
HCC-15	0.768	0.652	0.725	0.598	0.627	0.768	0.772	0.695	0.824	0.729	1.08	1.1	1.03	0.96	1	1.09	0.919	0.876	0.719	0.57
